This note sets out measurements from paper PMC4761420 (2015).

For the assay, the system named is 5′-TAMRA-AM1A (RNA, riboswitch) GAGGGUGGAACCGCGCUUCGGCGUCCCUC
The assay is described as follows: fluorescence titration. Particulars: 50 mM NaCl; 50 mM MOPS pH 6.5, 0.01 mM EDTA; 100 nM RNA; apparent.

For `NCCCCNCCCN`, the Kd was 54 ± 12 µM.
